Laboratory results as given in patent US5686065A, “Topical siloxane sunscreen compositions having enhanced performance and safety” (Special Advanced Biomaterials, Inc., priority 1991, dated 1997).
Read-outs that look alike come from different tables or passages of the source.

Columns and labels:
[1] = design: species or system greentree python snake
Experimental: Ten microliters (a), (b), (c), (d), AT or ethanol/cyclomethicone vehicle was applied separately to a 7 cm^2 patch of greentree python snake skin once daily for 3 days or to a 7 cm^2 patch of shaved rabbit skin. At the end of the application period, the patches were washed five times each day for three days with 20 μl of 50/50 ethanol/water using a 3 cm diameter cylinder to enable collection of the washings. The amount of skin protectant washed off was quantitated using reverse phase HPLC, C^14 radiocounting or AT/FTIR. The percentage remaining bound after 5, 10, and 15 washes was designated as 100×(amount applied-amount washed off)/(amount applied) and was averaged for the 5 samples.

[2] = Modified Draise test: erythema by salicylic acid on treated rabbit skin; type: in vivo; conditions: in words, from Table 10
Experimental: The skin test on rabbits was essentially a modified Draise test for skin in which unabraded skin was studied on partially occluded sites. The skin irritation study was started following skin treatment by one of the test compounds above. In this test, after the compound was applied to the skin, a known skin irritant, 10 μl of 5% salicylic acid in a 50/50 by volume mixture of ethanol/water, was applied once a day for 3 days. The skin was rated for erythema using the scale of 0--no erythema to 4--severe erythema.

[3] = Experimental: Ten microliters of each of (a), (b), (c), (d), 2-ethyl-1,3-hexanediol (EHD), N,N-diethyl-m-toluamide (DT), or N,N-diethoxy-m-toluamide (DOT) were applied to separate 7 cm^2 patches of greentree python snake skin once daily for 3 days. At the end of the application period, the patches were washed five times each day for three days with 20 μl of 50/50 ethanol/water using a 3 cm diameter cylinder to enable collection of the washings. The amount of insect repellent washed off was quantified using reverse phase HPLC, C^14 radiocounting or AT/FTIR. The percentage remaining bound after 5, 10, and 15 washes was designated as 100×(amount applied-amount washed off)/(amount applied) and was averaged for 5 samples.
S. aureus [4] = test: Zone of inhibition on agar of treated snake skin patches; type: cell-based; conditions: 24 hours
Experimental: The patches of snake skin were assayed for antimicrobial activity using 3 methods: (1) zone of antimicrobial activity on agar due to diffusion, (2) quantitation of microbial growth in solution mixing with patch, and (3) quantitation of microbial growth on human skin. The first method was a standard zone of inhibition study in which the bacteria was streaked onto an agar plate, the disk containing the test material was placed on the plate, and then the bacteria were allowed to grow for 24 hours.
(§1) Each result was averaged for samples.

S. aureus [5] = test: Quantitation of microbial growth in solution mixing with treated snake skin patch; type: cell-based; conditions: for Microbe Growth/Solution after 5 washes / Microbe Growth/Solution after 10 washes / Microbe Growth/Solution after 15 washes: S. aureus, treated snake skin, 24 hours
Experimental: In the second test, tubes containing liquid growth medium were inoculated with bacteria, and then the test disk was placed in the tube. The bacteria was allowed to grow for 24 hours and then the number of bacteria per ml was quantified either by light reflectance or by removing a small volume and streaking on an agar plate. The latter method was followed by allowing the bacteria to grow and then counting the colonies (Table 7).
as §1

[6] = tested on: normal skin bacteria (results for S. aureus reported); test: Quantitation of microbial growth on human skin (expanded flora); type: in vivo
Experimental: The third test involved growing normal skin bacteria by covering the skin with an occlusive dressing such as Saran Wrap (this is referred to as expanding the flora). Prior to expanding the flora, the skin test sites were treated with the test or control solutions as described above. The flora was then expanded for 24 hours, followed by quantitating the bacteria growth. This was done by washing an area of skin with liquid growth medium and spreading the washing on an agar plate. After the bacteria grew the number colonies were counted (Table 8).
as §1

[7] = Humectant remaining bound to snake skin after washing; design: species or system greentree python snake
Experimental: In the case of (b), 10 μl of ETS was also applied immediately after solution (b).

microbes on skin = conditions: general statement, no test given; cited from earlier work
[8] = by infants; general statement; cited from earlier work
[9] = human skin, flora expanded 24 hours, S. aureus
[10] = snake skin, insect repellent, 50/50 ethanol/water washes

NC(=O)NC1NC(=O)NC1=O (centres unmarked) [allantoin, Allantoin]
adherence to / retention on skin [1]: enhanced when applied with a polymerizing siloxane
protection from skin erythema by salicylic acid [2]: does provide some protection from skin erythema by salicylic acid, this protection is lost if the skin is washed

CCON(OCC)C(=O)c1cccc(C)c1 [DOT, N,N-diethoxy-m-toluamide]
% bound after 5 washes [3]: 6%
% bound after 10 washes [3]: 1%
% bound after 15 washes [3]: 1%

O=C(O)CC(O)C(=O)O (centres unmarked) [MA, Malic acid]
Zone of Inhibition after 5 washes (S. aureus [4]): 15 mm
Zone of Inhibition after 10 washes (S. aureus [4]): 0 mm
Zone of Inhibition after 15 washes (S. aureus [4]): 0 mm
Microbe Growth/Solution after 5 washes (S. aureus [5]): 0 CFU
Microbe Growth/Solution after 10 washes (S. aureus [5]): 10^2 CFU
Microbe Growth/Solution after 15 washes (S. aureus [5]): 10^3 CFU
Microbe Growth/on Skin after 5 washes [6, 9]: 10^5 CFU
Microbe Growth/on Skin after 15 washes [6, 9]: 10^5 CFU

OCC(O)CO [GL, Glycerol]
% bound after 5 washes [7]: 1%
% bound after 10 washes [7]: 0%
% bound after 15 washes [7]: 0%

O=C(Nc1ccc(Cl)cc1)Nc1ccc(Cl)c(Cl)c1 [trichlorocarban]
antimicrobial effectiveness on skin (microbes on skin): relatively ineffective

Hyaluronic acid [HA]
% bound after 5 washes [7]: 5%
% bound after 10 washes [7]: 1%
% bound after 15 washes [7]: 0%

allantion-mono(triethoxy)siloxy ester [Example 6 (d)]
% bound after 5 washes [1]: 47%
% bound after 10 washes [1]: 36%
% bound after 15 washes [1]: 21%

Oc1cc(Cl)ccc1Oc1ccc(Cl)cc1Cl [triclosan, Triclosan]
antimicrobial effectiveness on skin (microbes on skin): relatively ineffective

CCO[Si](CCCN)(OCC)OCC [aminofunctional silane coupling agent, Aminopropyltriethoxysilane]
microbiocidal activity (S. aureus [5]; in words, from Table 7): not bactericidal
antibacterial activity on human skin ([6]; in words, from Table 8): inhibitory activity on bacterial growth on human skin
microbial inhibitory activity on the skin ([6]; in words, no data at the place): substantial microbial inhibitory activity on the skin

Oc1c(Cl)cc(Cl)c(Cl)c1Cc1c(O)c(Cl)cc(Cl)c1Cl [HCP, Hexachlorophene]
Zone of Inhibition after 5 washes (S. aureus [4]): 18 mm
Zone of Inhibition after 10 washes (S. aureus [4]): 0 mm
Zone of Inhibition after 15 washes (S. aureus [4]): 0 mm
Microbe Growth/Solution after 5 washes (S. aureus [5]): 0 CFU
Microbe Growth/Solution after 15 washes (S. aureus [5]): 10^3 CFU
Microbe Growth/on Skin after 0 washes [6, 9]: 0 CFU
Microbe Growth/on Skin after 5 washes [6, 9]: 10^2 CFU
Microbe Growth/on Skin after 15 washes [6, 9]: 10^5 CFU
absorption [8]: rapidly absorbed by infants
toxicity / side effects of topical antimicrobial (microbes on skin): highly toxic

CCCC(O)C(CC)CO (centres unmarked) [EHD, 2-ethyl-1,3-hexanediol]
% bound after 5 washes [3]: 7%
% bound after 10 washes [3]: 2%
% bound after 15 washes [3]: 2%

CCN(CC)C(=O)c1cccc(C)c1 [DT, N,N-diethyl-m-toluamide]
% bound after 5 washes [3, 10]: 10%
% bound after 10 washes [3, 10]: 5%
% bound after 15 washes [3, 10]: 2%

[H]/N=C(\N/C(=N/[H])NCCCCCCNC(=N)NC(=N)Nc1ccc(Cl)cc1)Nc1ccc(Cl)cc1 [Chlorhexidene, Chlorhexidine]
antimicrobial effectiveness on skin (microbes on skin): very effective
toxicity / side effects of topical antimicrobial (microbes on skin): causes severe skin drying

[O-][n+]1ccccc1S [PYR, Pyrithione]
Zone of Inhibition after 5 washes (S. aureus [4]): 10 mm
Zone of Inhibition after 10 washes (S. aureus [4]): 0 mm
Zone of Inhibition after 15 washes (S. aureus [4]): 0 mm
Microbe Growth/Solution after 5 washes (S. aureus [5]): 0 CFU
Microbe Growth/Solution after 10 washes (S. aureus [5]): 10^2 CFU
Microbe Growth/Solution after 15 washes (S. aureus [5]): 10^3 CFU
Microbe Growth/on Skin after 5 washes [6, 9]: 10^4 CFU
Microbe Growth/on Skin after 15 washes [6, 9]: 10^5 CFU
